US9000027B2, “Chk1 suppresses a caspase-2 apoptotic response to DNA damage that bypasses p53, bcl-2 and caspase-3” (Dana-Farber Cancer Institute, Inc., priority 2008, dated 2015)

Experiments:
p53 mutant embryos = experiment: Live acridine orange (AO) assay of IR-induced cell death in inhibitor-treated p53 mutant embryos; type: in vivo, zebrafish; details: 12.5 Gy at 18 hpf; Gö6976 1 μM, KU55933 10 μM, Chk2 Inhibitor II 10 μM; 6 hr
Excerpt: (§1) Chk1 inhibitors hold considerable promise in cancer therapy, as they are expected to synergize with genotoxic agents to kill tumor cells lacking functional p53, without affecting normal cells (Kawabe, 2004; Zhou and Bartek, 2004). […] Gö6976 has not been tested in vivo in a vertebrate model system. We therefore evaluated it as well as specific Chk2 and ATM inhibitors in the zebrafish system. Drug toxicity was monitored by scoring the AO reactivity of inhibitor-treated, but non-irradiated, p53^+/+ embryos (left column in FIG. 8A). Unless otherwise indicated, the inhibitors were applied at 18 hpf (that is, immediately before IR) for a total of 6 hours.
Live zebrafish embryos were dechorionated in pronase (2.0 mg/mL in egg water) for 3 to 5 min and rinsed five times in egg water at 18 hpf. Embryos were then γ-irradiated (12.5 Gy) using a ^137Cs-irradiator (Gammacell 1000) at 18 hr post-fertilization (hpf). At 24 hpf, embryos were incubated in […] Acridine Orange (AO; Sigma A-6014) in egg water for 30 min at 28.5° C., followed by 3 quick rinses and three 10-min washes in egg water. 5-10 AO-treated embryos were anesthetized in Tricaine ([…]; 3-amino benzoic acid ethylester from Sigma, A-5040) and mounted laterally on a glass slide in warm 0.5% agarose in egg water by streaking a thin layer of the warm agarose across the surface of the slide, and gently pulling the embryos across the agar with a transfer pipette. Lateral images of each zebrafish were acquired on a Zeiss Axioplan2 fluorescence microscope (5× lens), using OpenLab software and a Hammamatsu C4742-95 digital camera. All images were then converted to 8-bit grayscale in NIH ImageJ using the Image>Type>8-bit command. Next, we cropped the images using the Polyonal Selection tool and the Image>Crop functions to include only the trunk of the animal from the head until the beginning of the yolk tube (MO screen; FIG. 1B) or along the entire spinal cord (epistasis analyses; FIGS. 6A & 6D). The area outside of the selected region of interest was cleared using the Edit>Clear Outside command to create a distinct boundary around the area of interest (this is important as it allows the area of interest to be precisely selected after applying the threshold). Next, we split the acquired images into features of interest and background using the Image>Adjust>Threshold function in NIH ImageJ. We then set the maximum threshold of each image to 255 (the lower slide bar in the Threshold window), and adjusted the minimum threshold to the optimized threshold (see below). The threshold was applied using the Black & White display option, with the following Lut options applied; Thresholded pixels to foreground color; Remaining pixels to background color and Black foreground, white background. […] Next, we re-selected the region of interest on the thresholded image, following the bounded image carefully, and analyzed the pixels of the image using the Analyze>Analyze Particles function. The Minimum Size was set to 1px, the Maximum Size was set to the maximum value of 999999 and the Masks option was selected under the Show pull-down menu. The following extended options were also selected: Display Results; Clear Results; Summarize, Size Distribution and Record Starts. If selected by default, the Exclude on Edges option was deselected. The Area Fraction for each image selection was taken from the Summary window, which is the percentage of pixels in the selection that were black. To ensure valid comparisons of the AO labeling results across all experiments, we quantitatively determined a baseline Area Fraction across a large set of simultaneously irradiated and processed p53^+/+ embryos. […] This analysis yielded a mean value for the total labeled surface area of ˜20% (see FIG. 1B, light gray bar). We included at least 6 p53^+/+ non-injected control embryos in all subsequent AO-labeling experiments. […]

p53^+/+ embryos = experiment: Drug toxicity: AO reactivity and development of inhibitor-treated, non-irradiated p53+/+ embryos; type: in vivo, zebrafish; details: 0 Gy; Gö6976 1 μM, KU55933 10 μM, Chk2 Inhibitor II 10 μM
Excerpt: as §1
Immediately before IR, 18-hpf embryos were dechorionated and transferred to fresh egg water containing 1% DMSO, with or without the following inhibitors at indicated final concentrations: KU55933 (10 μM; Sigma) (Hickson et al., 2004); Chk2 Inhibitor II (10 μM; Calbiochem) (Arienti et al., 2005); Gö6976 (1 μM; Calbiochem) (Kohn et al., 2003). Unless stated otherwise, embryos were exposed to the inhibitors for 6 hr, transferred to fresh egg water, rinsed five times for 5 min, and labeled with AO. For experiments with Tg(rag2:EGFP-bcl-2) larvae, larvae were incubated in the inhibitor solution at 4 dpf, irradiated at 5 dpf, rinsed at 6 dpf, incubated in fresh inhibitor for an additional 72 hr, and mounted live at 9 dpf for fluorescence microscopic analysis of EGFP expression.

[1] = system: p53^e7/e7;chk1^MO embryos; experiment: Epistasis analyses in irradiated p53^e7/e7;chk1^MO embryos (live AO assay); type: in vivo; details: 12.5 Gy
Experimental: To identify such molecules, we performed in vivo epistasis analyses in zebrafish by knocking down or forcing the expression of candidate pathway contributors in p53^e7/e7;chk1^MO embryos.
Morpholino oligonucleotides (MOs) synthesized by Gene Tools™ LLC, were resuspended in sterile water at a concentration of 1 mM and delivered into zebrafish embryos at the one-cell stage by microinjection. The injection apparatus consisted of a heat-pulled, filamentous RNAse free capillary tube positioned by a micromanipulator (Narishige™ M-125), through which the MO was pressure-injected using a nitrogen air supply controlled by a microinjector (Harvard Apparatus™ PLI-100). MOs were delivered into the yolk of embryos at the one cell stage, just below the cytoplasm. For each previously unpublished MO, the working concentration was determined as the highest dose compatible with normal zebrafish development in the p53^e7/e7 background (maximal subtoxic concentration). […] 100 ng of bcl-xl mRNA in vitro transcribed from full-length zebrafish bcl-xl cDNA cloned into pCS2 were injected as described above. All embryos were grown at 28.5° C. in egg water (5 mM NaCl, 0.17 mM KCl, 0.4 mM CaCl2 and 0.16 mM MgSO4). Knockdown efficiencies for the chk1, chk2, atm, atr, p63, casp8 and casp9 MOs at their maximal subtoxic concentrations are shown in FIG. 10. The sequences of the PCR primers used for RT-PCR-based monitoring of MO efficiencies are available upon request.
Live zebrafish embryos were dechorionated in pronase (2.0 mg/mL in egg water) for 3 to 5 min and rinsed five times in egg water at 18 hpf. […] At 24 hpf, embryos were incubated in […] Acridine Orange (AO; Sigma A-6014) in egg water for 30 min at 28.5° C., followed by 3 quick rinses and three 10-min washes in egg water. 5-10 AO-treated embryos were anesthetized in Tricaine ([…]; 3-amino benzoic acid ethylester from Sigma, A-5040) and mounted laterally on a glass slide in warm 0.5% agarose in egg water by streaking a thin layer of the warm agarose across the surface of the slide, and gently pulling the embryos across the agar with a transfer pipette. Lateral images of each zebrafish were acquired on a Zeiss Axioplan2 fluorescence microscope (5× lens), using OpenLab software and a Hammamatsu C4742-95 digital camera. All images were then converted to 8-bit grayscale in NIH ImageJ using the Image>Type>8-bit command. Next, we cropped the images using the Polyonal Selection tool and the Image>Crop functions to include only the trunk of the animal from the head until the beginning of the yolk tube (MO screen; FIG. 1B) or along the entire spinal cord (epistasis analyses; FIGS. 6A & 6D). The area outside of the selected region of interest was cleared using the Edit>Clear Outside command to create a distinct boundary around the area of interest (this is important as it allows the area of interest to be precisely selected after applying the threshold). Next, we split the acquired images into features of interest and background using the Image>Adjust>Threshold function in NIH ImageJ. We then set the maximum threshold of each image to 255 (the lower slide bar in the Threshold window), and adjusted the minimum threshold to the optimized threshold (see below). The threshold was applied using the Black & White display option, with the following Lut options applied; Thresholded pixels to foreground color; Remaining pixels to background color and Black foreground, white background. […] Next, we re-selected the region of interest on the thresholded image, following the bounded image carefully, and analyzed the pixels of the image using the Analyze>Analyze Particles function. The Minimum Size was set to 1px, the Maximum Size was set to the maximum value of 999999 and the Masks option was selected under the Show pull-down menu. The following extended options were also selected: Display Results; Clear Results; Summarize, Size Distribution and Record Starts. […]

Molecule	effect on IR-induced cell death (AO labeling) of p53^e7/e7;chk1^MO embryos [1]	further results
NC(=O)c1ccc2nc(-c3ccc(Oc4ccc(Cl)cc4)cc3)[nH]c2c1 [Chk2 Inhibitor II]	–	radiosensitization of p53 mutants (IR-induced AO labeling) (p53 mutant embryos): only modestly radiosensitized; toxicity of the dose used (AO reactivity of non-irradiated embryos) (p53^+/+ embryos): relatively toxic
O=c1cc(-c2cccc3c2Sc2ccccc2S3)oc(N2CCOCC2)c1 [KU55933]	–	radiosensitization of p53 mutants (IR-induced AO labeling) (p53 mutant embryos): only modestly radiosensitized; toxicity of the dose used (AO reactivity of non-irradiated embryos) (p53^+/+ embryos): relatively toxic
atm MO: morpholino against zebrafish atm, splice acceptor i55/e56 (SEQ ID NO: 14) (GAAAACGGCACCACCTGGTAAAAAC; antisense; all phosphorodiamidate morpholino (PMO))	–	reduction of the mean p53^e7/e7;chk1^MO AO response [1]: ~60%
casp2 MO1: morpholino targeting the splice donor site of intron 4 of zebrafish casp2 (SEQ ID NO: 22) (CGCTGAAACCCTGTTGTACCTGTGG; all phosphorodiamidate morpholino (PMO))	–	AO labeling, of the mean p53^e7/e7;chk1^MO response ([1]; 7.5 hpIR): 16%; mean decrease in AO labeling compared with p53^e7/e7;chk1^MO embryos ([1]; three separate experiments): 6 fold
casp2 MO2: second casp2 morpholino, gt e3/i3 (SEQ ID NO: 23) (antisense ACCATACTAAAGTACCAACCATGAG; all phosphorodiamidate morpholino (PMO))	significantly reduced IR-induced death	–
casp8 MO: morpholino against zebrafish casp8 splice donor site (SEQ ID NO: 25) (antisense ACAGGGTTTTAACTCACAGTAGATC; all phosphorodiamidate morpholino (PMO))	did not differ	–
fadd MO: morpholino against zebrafish FADD, gt e3/i3 (SEQ ID NO: 30) (antisense TAACGTTACCAACCTCGCTCTTTCG; all phosphorodiamidate morpholino (PMO))	failed to affect AO staining	–
mismatch version of casp2 MO1: 5 base-pair mismatch casp2 morpholino (SEQ ID NO: 24) (antisense CGGTGAAAGCCTCTTCTACCTCTGG; all phosphorodiamidate morpholino (PMO))	had no effect	–
p63 MO: morpholino against zebrafish p63, gt e3/i3 (SEQ ID NO: 28) (antisense AAAGAGTGGCATACCGTCATTGAAC; all phosphorodiamidate morpholino (PMO))	failed to compromise IR-induced cell death	–
p73 MO: morpholino against zebrafish TAp73 atg/5'UTR (SEQ ID NO: 29) (antisense GGATGTTGGACAATCCACCGCAGGG; all phosphorodiamidate morpholino (PMO))	failed to compromise IR-induced cell death	–
puma MO: morpholino against zebrafish puma, gt e2/i2 (SEQ ID NO: 27) (antisense AACCAAGCATGACTCTTACCCTCTG; all phosphorodiamidate morpholino (PMO))	did not significantly affect AO labeling	–
